Assay results as given in US10501451B2, “Selective NR2B antagonists” (BRISTOL-MYERS SQUIBB COMPANY, priority 2015, dated 2019).
Where two headings read alike, the source gives them in different places.

Target: NR2B-subtype NMDA receptors (Rattus norvegicus (Rat), UniProt P35439+Q00960)
Assay: Radioligand binding assay (3H Ro 25-6981 competition, rat forebrain membranes)
Details: 3H Ro 25-6981 (4 nM)
Method: Radioligand Binding Assay. Binding experiments to determine binding to NR2B-subtype NMDA receptors were performed on forebrains of 8-10 weeks old male Sprague Dawley rats (Harlan, Netherlands) using ^3H Ro 25-6981 (Mutel V; Buchy D; Klingelschmidt A; Messer J; Bleuel Z; Kemp J A; Richards J G. Journal of Neurochemistry, 1998, 70(5):2147-2155. Rats were decapitated without anesthesia using a Guillotine (approved by animal ethics committee) and the harvested brains were snap-frozen and stored at −80° C. for 3-6 months for membrane preparation.
For membrane preparation, rat forebrains were thawed on ice for 20 minutes in homogenization buffer composed of 50 mM KH2PO4 (pH adjusted to 7.4 with KOH), 1 mM EDTA, 0.005% Triton X 100 and protease inhibitor cocktail (Sigma Aldrich). Thawed brains were homogenized using a Dounce homogenizer and centrifuged at 48000×g for 20 min. The pellet was resuspended in cold buffer and homogenized again using a Dounce homogenizer. Subsequently, the homogenate was aliquoted, snap-frozen and stored at −80° C. for not more than 3-4 months.
To perform the competition binding assay, thawed membrane homogenate was added to each well of a 96-well plate (20 μg/well). The experimental compounds were serially diluted in 100% DMSO and added to each row of the assay plate to achieve desired compound concentrations, keeping the DMSO concentration in the assay plate at 1.33% of the final reaction volume. Next, ^3H Ro 25-6981 (4 nM) was added to the assay plate. After incubation for 1 hr at room temperature, the membrane bound radioligand was harvested on to GF/B filter plates (treated with 0.5% PEI for 1 hr at room temperature). The filter plates were dried at 50° C. for 20 mins, incubated with microscint 20 for 10 minutes and finally, the counts were read on TopCount (Perkin Elmer).

NR2B-subtype NMDA receptors, sequence (Q00960 27-1482, other chains not shown): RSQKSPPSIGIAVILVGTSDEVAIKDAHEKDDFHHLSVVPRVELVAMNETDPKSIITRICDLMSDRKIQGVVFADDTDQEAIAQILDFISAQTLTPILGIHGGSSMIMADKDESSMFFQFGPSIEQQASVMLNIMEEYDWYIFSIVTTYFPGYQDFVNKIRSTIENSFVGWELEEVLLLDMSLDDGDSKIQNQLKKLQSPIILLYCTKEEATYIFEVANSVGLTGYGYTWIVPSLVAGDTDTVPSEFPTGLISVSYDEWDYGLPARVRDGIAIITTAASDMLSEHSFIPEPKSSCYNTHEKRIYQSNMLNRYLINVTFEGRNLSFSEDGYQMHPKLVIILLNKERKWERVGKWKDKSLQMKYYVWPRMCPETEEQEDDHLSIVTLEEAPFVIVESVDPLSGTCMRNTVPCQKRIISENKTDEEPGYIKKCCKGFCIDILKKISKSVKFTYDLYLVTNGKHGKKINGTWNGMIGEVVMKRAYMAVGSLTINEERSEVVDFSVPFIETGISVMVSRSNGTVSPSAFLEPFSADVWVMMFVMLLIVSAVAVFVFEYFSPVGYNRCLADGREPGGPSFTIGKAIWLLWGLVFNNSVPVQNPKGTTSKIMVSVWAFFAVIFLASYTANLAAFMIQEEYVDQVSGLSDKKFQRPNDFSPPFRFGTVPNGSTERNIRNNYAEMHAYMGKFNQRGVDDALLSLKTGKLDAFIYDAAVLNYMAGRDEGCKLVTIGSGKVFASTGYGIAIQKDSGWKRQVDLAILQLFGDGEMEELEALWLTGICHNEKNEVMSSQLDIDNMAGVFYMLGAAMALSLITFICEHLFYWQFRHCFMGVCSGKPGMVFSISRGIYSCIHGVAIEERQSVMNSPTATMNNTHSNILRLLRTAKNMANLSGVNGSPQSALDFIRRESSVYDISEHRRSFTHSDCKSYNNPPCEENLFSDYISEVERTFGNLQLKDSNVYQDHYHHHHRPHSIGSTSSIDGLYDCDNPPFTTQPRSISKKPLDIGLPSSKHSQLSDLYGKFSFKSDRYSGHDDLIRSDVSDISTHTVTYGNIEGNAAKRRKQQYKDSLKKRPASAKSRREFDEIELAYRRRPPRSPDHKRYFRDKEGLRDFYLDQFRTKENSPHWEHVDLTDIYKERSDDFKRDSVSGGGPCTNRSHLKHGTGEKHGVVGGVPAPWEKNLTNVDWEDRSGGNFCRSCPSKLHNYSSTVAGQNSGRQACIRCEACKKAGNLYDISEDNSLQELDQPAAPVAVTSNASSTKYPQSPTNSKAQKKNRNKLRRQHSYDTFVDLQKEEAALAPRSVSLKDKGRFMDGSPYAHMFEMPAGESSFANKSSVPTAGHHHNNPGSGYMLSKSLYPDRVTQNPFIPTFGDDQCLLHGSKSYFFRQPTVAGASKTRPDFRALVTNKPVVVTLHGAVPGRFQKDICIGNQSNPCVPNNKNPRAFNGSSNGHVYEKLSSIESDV

Cc1ccc(CN2OCCC(N3CCN(c4ccc(O)cn4)CC3)C2=O)cc1 (single isomer, unassigned) [Example 8, P-2, 4-(4-(5-hydroxypyridin-2-yl)piperazin-1-yl)-2-(4-methylbenzyl)-1,2-oxazinan-3-one]
Ki (listed as 8, P-2, read-out: NR2B Binding Ki): 18.8 nM

O=C1C(N2CCC(c3ccc(O)c(F)c3)C(F)C2)CCON1Cc1ccc(Cl)cc1 (single isomer, unassigned) [Example 14, P-1, 2-(4-chlorobenzyl)-4-(3-fluoro-4-(3-fluoro-4-hydroxyphenyl)piperidin-1-yl)-1,2-oxazinan-3-one]
Ki (listed as 14, P-1, read-out: NR2B Binding Ki): 98.7 nM

Cc1ccc(CN2OCC(N3CCC(c4ccc(O)cc4)CC3)C2=O)cc1 (single isomer, unassigned) [Example 2, P-1, 4-(4-(4-hydroxyphenyl)piperidin-1-yl)-2-(4-methylbenzyl)isoxazolidin-3-one]
Ki (listed as 2, P-1, read-out: NR2B Binding Ki): 112 nM

O=C1C(N2CC[C@@H](c3ccc(O)cc3)[C@H](F)C2)CCON1Cc1ccc(Cl)cc1 (single isomer, unassigned) [Example 12, P-1]
Ki (listed as 12, P-1, read-out: NR2B Binding Ki): 3.9 nM

Cc1ccc(CN2OCCC(N3CCN(c4ccc(O)cn4)CC3)C2=O)cc1 (single isomer, unassigned) [Example 8, P-1, 4-(4-(5-hydroxypyridin-2-yl)piperazin-1-yl)-2-(4-methylbenzyl)-1,2-oxazinan-3-one]
Ki (listed as 8, P-1, read-out: NR2B Binding Ki): 57.8 nM

Cc1ccc(CN2OCCC(N3CC[C@H](c4ccc(O)cc4)[C@@H](F)C3)C2=O)cc1 (single isomer, unassigned) [Example 7, P-2]
Ki (listed as 7, P-2, read-out: NR2B Binding Ki): 4.98 nM

Cc1ccc(CN2OCCC(N3CCC(c4ccc(O)c(F)c4)C(F)C3)C2=O)cc1 (single isomer, unassigned) [Example 11, P-2, 4-(3-fluoro-4-(3-fluoro-4-hydroxyphenyl)piperidin-1-yl)-2-(4-methylbenzyl)-1,2-oxazinan-3-one]
Ki (listed as 11, P-2, read-out: NR2B Binding Ki): 39.3 nM

Cc1ccc(CN2OCC(N3CCC(c4ccc(O)cn4)CC3)C2=O)cc1 (single isomer, unassigned) [Example 9, P-2, 4-(4-(5-hydroxypyridin-2-yl)piperidin-1-yl)-2-(4-methylbenzyl)isoxazolidin-3-one]
Ki (listed as 9, P-2, read-out: NR2B Binding Ki): 12.1 nM

Cc1ccc(CN2OCC(N3CCN(c4ccc(O)cn4)CC3)C2=O)cc1 (single isomer, unassigned) [Example 10, P-2, 4-(4-(5-hydroxypyridin-2-yl)piperazin-1-yl)-2-(4-methylbenzyl)isoxazolidin-3-one]
Ki (listed as 10, P-2, read-out: NR2B Binding Ki): 10.7 nM

O=C1C(N2CCC(c3ccc(O)cc3)CC2)CON1Cc1ccc(F)cc1 (single isomer, unassigned) [Example 1, P-1, 2-(4-fluorobenzyl)-4-(4-(4-hydroxyphenyl)piperidin-1-yl)isoxazolidin-3-one]
Ki (P-1, read-out: NR2B Binding Ki): 305 nM

Cc1ccc(CN2OCCC(N3CC[C@H](c4ccc(O)cc4)[C@@H](F)C3)C2=O)cc1 (single isomer, unassigned) [Example 7, P-1]
Ki (listed as 7, P-1, read-out: NR2B Binding Ki): 125 nM

Cc1ccc(CN2OCCC(N3CCC(c4ccc(O)cn4)CC3)C2=O)cc1 (single isomer, unassigned) [Example 6, P-1, 4-(4-(5-hydroxypyridin-2-yl)piperidin-1-yl)-2-(4-methylbenzyl)-1,2-oxazinan-3-one]
Ki (listed as 6, P-1, read-out: NR2B Binding Ki): 6.53 nM

O=C1C(N2CC[C@@H](c3ccc(O)cc3)[C@H](F)C2)CCON1Cc1ccc(F)cc1 (single isomer, unassigned) [Example 15, P-2]
Ki (listed as 15, P-2, read-out: NR2B Binding Ki): 12.5 nM

O=C1C(N2CC[C@@H](c3ccc(O)cc3)[C@H](F)C2)CCON1Cc1ccc(Cl)cc1 (single isomer, unassigned) [Example 12, P-2]
Ki (listed as 12, P-2, read-out: NR2B Binding Ki): 150 nM

Cc1ccc(CN2OCCC(N3CCC(c4ccc(O)cn4)CC3)C2=O)cc1 (single isomer, unassigned) [Example 6, P-2, 4-(4-(5-hydroxypyridin-2-yl)piperidin-1-yl)-2-(4-methylbenzyl)-1,2-oxazinan-3-one]
Ki (listed as 6, P-2, read-out: NR2B Binding Ki): 8.16 nM

O=C1C(N2CCC(c3ccc(O)cc3)CC2)CON1Cc1ccc(F)cc1 (single isomer, unassigned) [Example 1, P-2, 2-(4-fluorobenzyl)-4-(4-(4-hydroxyphenyl)piperidin-1-yl)isoxazolidin-3-one]
Ki (listed as 1, P-2, read-out: NR2B Binding Ki): 4.08 nM

O=C1C(N2CCC(c3ccc(O)c(F)c3)C(F)C2)CCON1Cc1ccc(Cl)cc1 (single isomer, unassigned) [Example 14, P-2, 2-(4-chlorobenzyl)-4-(3-fluoro-4-(3-fluoro-4-hydroxyphenyl)piperidin-1-yl)-1,2-oxazinan-3-one]
Ki (listed as 14, P-2, read-out: NR2B Binding Ki): 2.8 nM

O=C1C(N2CCC(c3ccc(O)c(F)c3)C(F)C2)CCON1Cc1ccc(F)cc1 (single isomer, unassigned) [Example 13, P-1, 4-(3-fluoro-4-(3-fluoro-4-hydroxyphenyl)piperidin-1-yl)-2-(4-fluorobenzyl)-1,2-oxazinan-3-one]
Ki (listed as 13, P-1, read-out: NR2B Binding Ki): 367 nM

Cc1ccc(CN2OCCC(N3CC[C@@H](c4ccc(O)cc4)[C@H](F)C3)C2=O)cc1 (single isomer, unassigned) [Example 5, P-2]
Ki (listed as 5, P-2, read-out: NR2B Binding Ki): 4.37 nM

O=C1C(N2CC[C@@H](c3ccc(O)cc3)[C@H](F)C2)CCON1Cc1ccc(F)cc1 (single isomer, unassigned) [Example 15, P-1]
Ki (listed as 15, P-1, read-out: NR2B Binding Ki): 393 nM

Cc1ccc(CN2OCC(N3CCC(c4ccc(O)cn4)CC3)C2=O)cc1 (single isomer, unassigned) [Example 9, P-1, 4-(4-(5-hydroxypyridin-2-yl)piperidin-1-yl)-2-(4-methylbenzyl)isoxazolidin-3-one]
Ki (listed as 9, P-1, read-out: NR2B Binding Ki): 139 nM

Cc1ccc(CN2OCCC(N3CC[C@@H](c4ccc(O)cc4)[C@H](F)C3)C2=O)cc1 (single isomer, unassigned) [Example 5, P-1]
Ki (listed as 5, P-1, read-out: NR2B Binding Ki): 144 nM

Cc1ccc(CN2OCCC(N3CCC(c4ccc(O)c(F)c4)C(F)C3)C2=O)cc1 (single isomer, unassigned) [Example 11, P-1, 4-(3-fluoro-4-(3-fluoro-4-hydroxyphenyl)piperidin-1-yl)-2-(4-methylbenzyl)-1,2-oxazinan-3-one]
Ki (listed as 11, P-1, read-out: NR2B Binding Ki): 3.06 nM

O=C1C(N2CCC(c3ccc(O)c(F)c3)C(F)C2)CCON1Cc1ccc(F)cc1 (single isomer, unassigned) [Example 13, P-2, 4-(3-fluoro-4-(3-fluoro-4-hydroxyphenyl)piperidin-1-yl)-2-(4-fluorobenzyl)-1,2-oxazinan-3-one]
Ki (listed as 13, P-2, read-out: NR2B Binding Ki): 4.03 nM
